Measured values from publication PMC5219937 (Bioconjugate chemistry, 2015).
Read-outs that look alike come from different tables or passages of the source.

What was measured:
[1] = tested on: type 2 diabetic C57BL/6 db/db mice; assay: Hypoglycemic effect after subcutaneous injection in db/db mice; format: in vivo, mouse
[2] = cited from earlier work

With “Albiglutide: a exendin-4-albumin fusion protein, FDA approved, once a week administration” the blood glucose level ([1]; dose 14 nmol/kg (Figure S8b)) was 11.88 mmol/L, the “time required to rebound to a glucose level of 8.35 mmol/L (hypoglycemic duration)” value ([1]; dose 69 nmol/kg) was 11 h and the lowest glucose level ([1]; dose 69 nmol/kg, three mice, mean) was 7.03 mmol/L. For the same substance, the lowest glucose level ([1]; dose 123 nmol/kg (Figure S8c)) was 6.67 mmol/L, the “time required to rebound to a glucose level of 8.35 mmol/L (hypoglycemic duration)” value ([1]; dose 123 nmol/kg (Figure S8d)) was 28 h and the half-lifetime [2] was 96 to 170 h.
For “GLP-1: 30-amino-acid peptide hormone secreted from gut endocrine L cells”, the half-lifetime ([2]; endogenous GLP-1, degraded by DPP-4 once secreted) is listed as 0.017 to 0.033 h.
In the case of Exenatide: commercial exendin-4, the circulating half-life [2] is listed as 1.5 to 3.6 h.
